Reference: article PMC4459817, “Vasculotide reduces endothelial permeability and tumor cell extravasation in the absence of binding to or agonistic activation of Tie2” (EMBO Molecular Medicine, 2015)

T1: human Tie2-Fc (Fc-conjugated extracellular domain of Tie2) (human, UniProt Q02763 23-748)
T1 chain: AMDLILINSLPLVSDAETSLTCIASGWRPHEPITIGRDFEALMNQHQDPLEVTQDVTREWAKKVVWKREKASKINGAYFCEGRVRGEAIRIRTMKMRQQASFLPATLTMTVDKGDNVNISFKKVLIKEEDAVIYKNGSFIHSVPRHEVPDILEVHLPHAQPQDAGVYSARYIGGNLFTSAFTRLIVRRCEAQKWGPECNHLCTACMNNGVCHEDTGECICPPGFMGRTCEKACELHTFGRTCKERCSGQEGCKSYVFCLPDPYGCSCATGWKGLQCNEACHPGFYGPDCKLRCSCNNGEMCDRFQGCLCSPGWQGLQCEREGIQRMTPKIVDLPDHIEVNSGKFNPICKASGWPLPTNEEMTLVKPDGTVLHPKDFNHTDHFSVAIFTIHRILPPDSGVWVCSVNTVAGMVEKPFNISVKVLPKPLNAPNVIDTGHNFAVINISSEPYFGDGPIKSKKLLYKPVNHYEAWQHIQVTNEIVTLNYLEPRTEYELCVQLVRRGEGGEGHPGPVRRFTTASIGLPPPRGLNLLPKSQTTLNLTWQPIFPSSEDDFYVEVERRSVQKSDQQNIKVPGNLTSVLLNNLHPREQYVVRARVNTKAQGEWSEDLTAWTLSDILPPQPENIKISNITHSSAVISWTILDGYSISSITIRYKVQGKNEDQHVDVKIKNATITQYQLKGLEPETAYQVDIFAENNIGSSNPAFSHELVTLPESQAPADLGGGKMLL


Legend:
[1] = test system: HT29luc metastases in YFP-SCID mice; assay: experimental HT29luc liver/lymphatic metastasis model (IV); type: in vivo, human HT29luc cells in YFP-SCID mice; details: VT vs PBS; Fig3A–D; 35DPI imaging
Description: (§1) Figure 3 Vasculotide has no effect on experimental liver metastases from a colon cancer cell line (HT29^luc), nor on experimental lung metastases from a renal cancer cell line (SN12^luc) • A–D An experiment where HT29^luc tumor cells were implanted intravenously into YFP-SCID mice. (A) Kaplan–Meier survival analysis. (B) Quantification of total metastatic burden in the liver and lymphatics, at 35 days post-implantation (DPI), from whole-body bioluminescent imaging (C). (D) Photograph of typical liver metastases. • E–G An experiment where SN12^luc tumor cells were implanted intravenously into YFP-SCID mice. (E) Kaplan–Meier survival analysis. (F) Quantification of total metastatic burden at 50DPI, mostly within the lungs, from whole-body bioluminescent imaging (G). […]
(§2) For in vivo BI: Mice were injected intraperitoneally with 150mg/kg luciferin (Promega) 10 minutes prior to and anesthetized with isofluorane just before luminescent pseudocolor imaging (uniform settings: CCD camera locked at -105 °C, exposure=60s, f/1, subject size=1.5cm, bin=8, FOV=23.2cm, full image correction) using the IVIS 200 Imaging System (Caliper/PerkinElmer). Using the Living Image software (v2.50.1, Xenogen), weekly images were analyzed under uniform color range on grayscale photographic overlay. […]

[2] = test system: SN12luc lung metastases in YFP-SCID mice; assay: experimental SN12luc lung metastasis model (IV); type: in vivo, human SN12luc cells in YFP-SCID mice; details: VT 250 ng/2 days or 400 ng/2 days; Fig3E–G; 50DPI imaging
Description: as §1, §2

[3] = target: T1, human Tie2-Fc (Fc-conjugated …); assay: SPR

Kd [3] [nM]	Molecule	survival, metastatic burden (IVBI) and liver-specific metastases [1]	lung metastases response [2]
	CHHHRHSF [Vasculotide, 4-armed maleimide-functionalized polyethylene glycol (PEG) backbone to link together four cysteine-capped T7 peptides, that is, CHHHRHSF]	No significant differences	did not respond to VT treatment
0.205	recombinant human Ang1 (rhAng1) (ligand, UniProt Q15389 16-498, looked up, angiopoietin-1, human, recombinant; also called angiopoietin-1; source: bought: R&D Systems (named for the Boyden chamber experiments)) HIGCSNQRRSPENSGRRYNRIQHGQCAYTFILPEHDGNCRESTTDQYNTNALQRDAPHVEPDFSSQKLQHLEHVMENYTQWLQKLENYIVENMKSEMAQIQQNAVQNHTATMLEIGTSLLSQTAEQTRKLTDVETQVLNQTSRLEIQLLENSLSTYKLEKQLLQQTNEILKIHEKNSLLEHKILEMEGKHKEELDTLKEEKENLQGLVTRQTYIIQELEKQLNRATTNNSVLQKQQLELMDTVHNLVNLCTKEGVLLKGGKREEEKPFRDCADVYQAGFNKSGIYTIYINNMPEPKKVFCNMDVNGGGWTVIQHREDGSLDFQRGWKEYKMGFGNPSGEYWLGNEFIFAITSQRQYMLRIELMDWEGNRAYSQYDRFHIGNEKQNYRLYLKGHTGTAGKQSSLILHGADFSTKDADNDNCMCKCALMLTGGWWFDACGPSNLNGMFYTAGQNHGKLNGIKWHYFKGPSYSLRSTTMMIRPLDF		
